Laboratory results as given in ChEMBL document CHEMBL2177090, “Ceric ammonium nitrate-promoted oxidative coupling reaction for the synthesis and evaluation of a series of anti-tumor amide anhydrovinblastine analogs” (Bioorg Med Chem Lett, 2012).

The compounds below were run on HeLa (assay: Cytotoxicity against human HeLa cells by MTT assay).
Type: functional, cell-based
Compound `CCC1=C[C@H]2CN(CCc3c([nH]c4ccccc34)[C@@](C(=O)OC)(c3cc4c(cc3OC)N(C)[C@H]3[C@@](O)(CCNC(=O)c5ccccc5F)[C@H](OC(C)=O)[C@]5(CC)C=CCN6CC[C@]43[C@@H]65)C2)C1` has an IC50 of 247 nM. `CCC(=O)NCC[C@@]1(O)[C@H](OC(C)=O)[C@]2(CC)C=CCN3CC[C@@]4(c5cc([C@@]6(C(=O)OC)C[C@H]7C=C(CC)CN(CCc8c6[nH]c6ccccc86)C7)c(OC)cc5N(C)[C@@H]14)[C@@H]32` showed an IC50 of 110 nM. Compound `CCC1=C[C@H]2CN(CCc3c([nH]c4ccccc34)[C@@](C(=O)OC)(c3cc4c(cc3OC)N(C)[C@H]3[C@@](O)(CCNC(=O)c5ccco5)[C@H](OC(C)=O)[C@]5(CC)C=CCN6CC[C@]43[C@@H]65)C2)C1` has an IC50 of 18 nM. Compound `CCC1=C[C@H]2CN(CCc3c([nH]c4ccccc34)[C@@](C(=O)OC)(c3cc4c(cc3OC)N(C)[C@H]3[C@@](O)(CCNC(=O)CC(C)C)[C@H](OC(C)=O)[C@]5(CC)C=CCN6CC[C@]43[C@@H]65)C2)C1` has an IC50 of 185 nM. Work on `CCC1=C[C@H]2CN(CCc3c([nH]c4ccccc34)[C@@](C(=O)OC)(c3cc4c(cc3OC)N(C)[C@H]3[C@@](O)(CCNC(=O)c5ccccc5OC)[C@H](OC(C)=O)[C@]5(CC)C=CCN6CC[C@]43[C@@H]65)C2)C1` yielded an IC50 of 234 nM. Compound `CCC1=C[C@H]2CN(CCc3c([nH]c4ccccc34)[C@@](C(=O)OC)(c3cc4c(cc3OC)N(C)[C@H]3[C@@](O)(CCNC(=O)C5CC5)[C@H](OC(C)=O)[C@]5(CC)C=CCN6CC[C@]43[C@@H]65)C2)C1` has an IC50 of 142 nM. In the case of `CCC1=C[C@H]2CN(CCc3c([nH]c4ccccc34)[C@@](C(=O)OC)(c3cc4c(cc3OC)N(C)[C@H]3[C@@](O)(CCNC(C)=O)[C@H](OC(C)=O)[C@]5(CC)C=CCN6CC[C@]43[C@@H]65)C2)C1`, the IC50 is reported as 57 nM. Work on `CCC1=C[C@H]2CN(CCc3c([nH]c4ccccc34)[C@@](C(=O)OC)(c3cc4c(cc3OC)N(C)[C@H]3[C@@](O)(CCNC(=O)c5cccc(OC)c5)[C@H](OC(C)=O)[C@]5(CC)C=CCN6CC[C@]43[C@@H]65)C2)C1` yielded an IC50 of 169 nM. In the case of `CCC1=C[C@H]2CN(CCc3c([nH]c4ccccc34)[C@@](C(=O)OC)(c3cc4c(cc3OC)N(C)[C@H]3[C@@](O)(CCNC(=O)C(C)C)[C@H](OC(C)=O)[C@]5(CC)C=CCN6CC[C@]43[C@@H]65)C2)C1`, the IC50 is reported as 26 nM. `CCC1=C[C@H]2CN(CCc3c([nH]c4ccccc34)[C@@](C(=O)OC)(c3cc4c(cc3OC)N(C)[C@H]3[C@@](O)(CCNC(=O)c5ccccc5)[C@H](OC(C)=O)[C@]5(CC)C=CCN6CC[C@]43[C@@H]65)C2)C1` showed an IC50 of 107 nM. For `CCC1=C[C@@H]2CN(C1)Cc1c([nH]c3ccccc13)[C@@](C(=O)OC)(c1cc3c(cc1OC)N(C)[C@H]1[C@@](O)(C(=O)OC)[C@H](OC(C)=O)[C@]4(CC)C=CCN5CC[C@]31[C@@H]54)C2` [VINORELBINE], the IC50 was 27 nM. `CCC1=C[C@H]2CN(CCc3c([nH]c4ccccc34)[C@@](C(=O)OC)(c3cc4c(cc3OC)N(C)[C@H]3[C@@](O)(CCNC(=O)c5ccc(C)cc5)[C@H](OC(C)=O)[C@]5(CC)C=CCN6CC[C@]43[C@@H]65)C2)C1` gave an IC50 of 259 nM.
